Reference: ChEMBL document CHEMBL3124939, “Evaluation of nicotine and cotinine analogs as potential neuroprotective agents for Alzheimer's disease” (2014)
Calls of active or inactive are those of the source. No cut-off for these calls is given here.

Assays:
Format in all cases: functional, cell-based
Cerebral cortex neuron [1] = test: Neuroprotective activity in Sprague-Dawley rat primary cortical neurons assessed as inhibition of glutamate-induced toxicity by measuring cell viability at 0.01 uM by trypan blue exclusion assay
Cerebral cortex neuron [2] = test: Neuroprotective activity in Sprague-Dawley rat primary cortical neurons assessed as inhibition of amyloid beta 1 to 42-induced toxicity by measuring cell viability at 100 uM by trypan blue exclusion assay
Cerebral cortex neuron [3] = test: Neuroprotective activity in Sprague-Dawley rat primary cortical neurons assessed as inhibition of amyloid beta 1 to 42-induced toxicity by measuring cell viability at 0.1 uM by trypan blue exclusion assay
Cerebral cortex neuron [4] = test: Neuroprotective activity in Sprague-Dawley rat primary cortical neurons assessed as inhibition of glutamate-induced toxicity by measuring cell viability at 10 uM by trypan blue exclusion assay

SMILES | Activity (Cerebral cortex neuron [2]) | Activity (Cerebral cortex neuron [3]) | also measured
CN1CCC[C@H]1c1ccc[n+]([O-])c1 | – | – | Activity (Cerebral cortex neuron [1]): Active
C[N+]1=CCC[C@H]1c1cccnc1 | Active | – | –
O=C1CCC(c2cccnc2)N1 (stereo unspecified) | Active | – | –
CN1CCC[C@H]1c1cccnc1 | – | Active | –
CN1C(=O)CC[C@H]1c1cccnc1 | – | Active | –
CC12CC3CC(C)(C1)CC(N)(C3)C2 | – | – | Activity (Cerebral cortex neuron [4]): Active
